Measurements as given in ChEMBL document CHEMBL1124516, “Synthesis of 2,3-diaziridinyl-1,4-naphthoquinone sulfonate derivatives as potential antineoplastic agents” (1989).

How the values were obtained:
Mus musculus [1] = assay: Average change in weight in mice bearing the L1210 Leukemia, when compound (20 mg/kg) was administered once daily beginning 24 hr after tumor implantation, for 6 consecutive days.; format: functional
Mus musculus [2] = assay: Average change in weight in mice bearing the L1210 Leukemia, when compound (25 mg/kg) was administered once daily beginning 24 hr after tumor implantation, for 6 consecutive days.; format: functional
Mus musculus [3] = assay: Average change in weight in mice bearing the L1210 Leukemia, when compound(30 mg/kg) was administered once daily beginning 24 hr after tumor implantation, for 6 consecutive days.; format: functional
L1210 [4] = assay: Percentage survival time of L1210 (murine leukemia) inoculated mice following 25 mg/kg i.p.; format: functional, Mus musculus; details: route intraperitoneal
L1210 [5] = assay: Percentage survival time of L1210 (murine leukemia) inoculated mice following 30 mg/kg i.p.; format: functional, Mus musculus; details: route intraperitoneal
L1210 [6] = assay: Percentage survival time of L1210 (murine leukemia) inoculated mice following 20 mg/kg i.p.; format: functional, Mus musculus; details: route intraperitoneal
Mus musculus [7] = assay: Number of mice surviving for a period greater than 50 days when a dose of 30 mg/Kg is administered intraperitoneally; tested in 5 mice; format: functional
Mus musculus [8] = assay: Number of mice survived for a period greater than 50 days when a dose of 20 mg/Kg is administered intraperitoneally; tested in 5 mice; format: functional
L1210 [9] = assay: Number L1210 (murine leukemia) inoculated mice surviving for >50 days following 25 mg/kg i.p.; format: functional, Mus musculus; details: route intraperitoneal
Mus musculus [10] = assay: Average change in weight in mice bearing the B16 Melanoma, when compound(50 mg/kg) was administered intraperitoneally beginning 24 hr after tumor implantation, daily once for 6 consecutive days.; format: functional
Mus musculus [11] = assay: Average change in weight in mice bearing the B16 Melanoma, when compound(150 mg/kg) was administered beginning 24 hr after tumor implantation, daily once for 6 consecutive days.; format: functional
Mus musculus [12] = assay: Average change in weight in mice bearing the B16 Melanoma, when compound(100 mg/kg) was administered beginning 24 hr after tumor implantation, daily once for 6 consecutive days.; format: functional
Mus musculus [13] = assay: The ratio of the survival time of treated to control animals x 100 in mice bearing B16 Melanoma, when compound (100 mg/kg) was administered intraperitoneally; format: functional
Mus musculus [14] = assay: The ratio of the survival time of treated to control animals x 100 in mice bearing B16 Melanoma, when compound (150 mg/kg) was administered intraperitoneally; format: functional
Mus musculus [15] = assay: The ratio of the survival time of treated to control animals x 100 in mice bearing B16 Melanoma, when compound (50 mg/kg) was administered intraperitoneally; format: functional
Mus musculus [16] = assay: Survival of mice bearing B16 melanoma cells greater than 50 days when treated with a dose of 100 mg/Kg administered intraperitoneally; tested in 5 mice; format: functional
Mus musculus [17] = assay: Survival of mice bearing B16 melanoma cells greater than 50 days when treated with a dose of 150 mg/Kg administered intraperitoneally; tested in 5 mice; format: functional
Mus musculus [18] = assay: Survival of mice bearing B16 melanoma cells greater than 50 days when treated with a dose of 50 mg/Kg administered intraperitoneally; tested in 5 mice; format: functional

SMILES	Average change in body weight (Mus musculus [1]) [%]	Average body weight change (Mus musculus [2]) [%]	Average change in body weight (Mus musculus [3]) [%]	Activity (L1210 [4])	Activity (L1210 [5])	Activity (L1210 [6])	Survivals (Mus musculus [7])	Survivals (Mus musculus [8])	Survivals (L1210 [9])	Average body weight change (Mus musculus [10]) [%]	Average change in body weight (Mus musculus [11]) [%]	Average change in body weight (Mus musculus [12]) [%]	Activity (Mus musculus [13])	Activity (Mus musculus [14])	Activity (Mus musculus [15])	Survivals (Mus musculus [16])	Survivals (Mus musculus [17])	Survivals (Mus musculus [18])
O=C1C(N2CC2)=C(N2CC2)C(=O)c2c(OS(=O)(=O)c3ccc([N+](=O)[O-])cc3[N+](=O)[O-])cccc21	2.3	4.8	-1.3	105	100	111	0	0	0	–	–	–	–	–	–	–	–	–
Cc1ccc(S(=O)(=O)Oc2cccc3c2C(=O)C=C(N2CC2)C3=O)cc1	7.3	5.1	1.2	103	111	102	0	0	0	–	–	–	–	–	–	–	–	–
CC1(C)C2CCC1(CS(=O)(=O)Oc1cccc3c1C(=O)C(N1CC1)=C(N1CC1)C3=O)C(=O)C2 (centres undefined)	-9.3	-3.5	-9.2	148	168	136	0	0	0	–	–	–	–	–	–	–	–	–
O=C1C(N2CC2)=C(N2CC2)C(=O)c2c(OS(=O)(=O)c3ccc(F)cc3)cccc21	0.3	-5.7	-3.4	200	–	–	5	5	4	-5.2	-20.3	-14.3	182	177	159	0	0	0
O=C1C(N2CC2)=C(N2CC2)C(=O)c2c(OS(=O)(=O)c3cccc4cccnc34)cccc21	-6.6	-6.5	-8	418	291	332	3	3	4	-1.7	-14.3	-8.2	219	239	195	–	–	–
CN(C)c1cccc2c(S(=O)(=O)Oc3cccc4c3C(=O)C(N3CC3)=C(N3CC3)C4=O)cccc12	2.2	3.8	3.9	115	117	110	0	0	0	–	–	–	–	–	–	–	–	–
O=C1C(N2CC2)=C(N2CC2)C(=O)c2c(OS(=O)(=O)Cc3ccccc3)cccc21	2.4	3.1	-3	153	141	127	0	0	0	–	–	–	–	–	–	–	–	–
Cc1cc(C)c(S(=O)(=O)Oc2cccc3c2C(=O)C(N2CC2)=C(N2CC2)C3=O)c(C)c1	-0.4	-2.5	-2.6	113	124	113	0	0	0	–	–	–	–	–	–	–	–	–
O=C1C(N2CC2)=C(N2CC2)C(=O)c2c(OS(=O)(=O)c3ccc(Br)cc3)cccc21	12.2	11.2	8.3	165	179	214	0	0	0	1.1	0.7	2.5	153	151	143	–	–	–
O=C1C(N2CC2)=C(N2CC2)C(=O)c2c(OS(=O)(=O)/C=C/c3ccccc3)cccc21	-3.5	1.9	-1	130	150	132	0	0	0	–	–	–	–	–	–	–	–	–
CCc1ccc(S(=O)(=O)Oc2cccc3c2C(=O)C(N2CC2)=C(N2CC2)C3=O)cc1	8.4	13.6	9.9	151	172	147	0	0	0	–	–	–	–	–	–	–	–	–
CC(C)c1cc(C(C)C)c(S(=O)(=O)Oc2cccc3c2C(=O)C(N2CC2)=C(N2CC2)C3=O)c(C(C)C)c1	7.8	9	7.4	102	100	100	0	0	0	–	–	–	–	–	–	–	–	–
O=C1C(N2CC2)=C(N2CC2)C(=O)c2c(OS(=O)(=O)c3cccs3)cccc21	-2.3	-4.7	-6.4	–	–	165	5	4	5	-10.8	-22.7	-18.2	161	77	156	–	–	–
CC(C)(C)c1ccc(S(=O)(=O)Oc2cccc3c2C(=O)C(N2CC2)=C(N2CC2)C3=O)cc1	12.8	11.8	6.7	98	98	104	0	0	0	–	–	–	–	–	–	–	–	–
O=C1C(N2CC2)=C(N2CC2)C(=O)c2c(OS(=O)(=O)c3ccc(I)cc3)cccc21	14.6	11.1	15.8	146	146	127	0	0	0	4.1	-4.1	0.6	138	141	132	–	–	–
O=C1C(N2CC2)=C(N2CC2)C(=O)c2c(OS(=O)(=O)c3cccc4ccccc34)cccc21	14.6	9.2	13.7	104	104	107	0	0	0	–	–	–	–	–	–	–	–	–
CCCCS(=O)(=O)Oc1cccc2c1C(=O)C(N1CC1)=C(N1CC1)C2=O	0.1	-10.9	-11.3	124	131	131	0	0	0	–	–	–	–	–	–	–	–	–
O=C1C(N2CC2)=C(N2CC2)C(=O)c2c(OS(=O)(=O)CCCCl)cccc21	-7.5	-12.1	-27.6	145	150	123	0	0	0	–	–	–	–	–	–	–	–	–
CCCCCCCCCCCCCCCCS(=O)(=O)Oc1cccc2c1C(=O)C(N1CC1)=C(N1CC1)C2=O	13	9.9	9.7	91	91	96	0	0	0	–	–	–	–	–	–	–	–	–
O=C1C(N2CC2)=C(N2CC2)C(=O)c2c(OS(=O)(=O)c3ccc([N+](=O)[O-])cc3)cccc21	-11.1	-12.9	-13.1	293	152	402	4	4	3	–	–	–	–	–	–	–	–	–
